Counter-ions that a name gives are not always drawn.
Nc1cccc(Cn2nnc3c(-c4nccs4)nc(N)nc32)c1 [Example 83, 3-(3-aminobenzyl)-7-(2-thiazolyl)-3H-[1,2,3]triazolo[4,5-d]pyrimidine-5-amine] gave a melting point of 252.8 to 253.3 °C.

In the case of Nc1nc(-c2ccco2)c2nnn(Cc3ccc4[nH]ncc4c3)c2n1 [Example 200, 7-(2-furyl)-3-(5-indazolylmethyl)-3H-[1,2,3]triazolo[4,5-d]pyrimidine-5-amine], the melting point is reported as > 300 °C (dec.).

Nc1nc(-c2ccco2)c2nnn(Cc3cc(F)ccc3F)c2n1 [Example 65, 3-(2,5-difluorobenzyl)-7-(2-furyl)-3H-[1,2,3]triazolo[4,5-d]pyrimidine-5-amine] showed a melting point of 208.1 to 208.2 °C.

Molecule Nc1nc(-c2ccco2)c2nnn(Cc3cc(F)cc(F)c3F)c2n1 [Example 168, 7-(2-furyl)-3-(2,3,5-trifluorobenzyl)-3H-[1,2,3]triazolo[4,5-d]pyrimidine-5-amine] has a melting point of 204 to 204.2 °C.

For Cc1ccc(-c2nc(N)nc3c2nnn3Cc2cccc(-c3ccccc3)n2)o1 [Example 82, 7-(5-methyl-2-furyl)-3-(6-phenyl-2-pyridylmethyl)-3H-[1,2,3]triazolo[4,5-d]pyrimidine-5-amine], the melting point was 205 to 205.3 °C.

Nc1cccc(Cn2nnc3c(-c4cccs4)nc(N)nc32)c1 [Example 48, 3-(3-aminobenzyl)-7-(2-thienyl)-3H-[1,2,3]triazolo[4,5-d]pyrimidine-5-amine] showed a melting point of 265.9 to 266 °C.

In the case of Cc1ccc(-c2nc(N)nc3c2nnn3Cc2cccc(N)c2C)o1 [Example 180, 3-(3-amino-2-methylbenzyl)-7-(5-methyl-2-furyl)-3H-[1,2,3]triazolo[4,5-d]pyrimidine-5-amine], the melting point is reported as 278.4 to 279.9 °C.

For CC(C)c1cccc(Cn2nnc3c(-c4ccco4)nc(N)nc32)n1 [Example 197, 7-(2-furyl)-3-(6-isopropyl-2-pyridylmethyl)-3H-[1,2,3]triazolo[4,5-d]pyrimidine-5-amine], the melting point was 188.3 to 188.5 °C.

In the case of Nc1nc(-c2cccs2)c2nnn(Cc3ccccc3F)c2n1 [Example 35, 3-(2-fluorobenzyl)-7-(2-thienyl)-3H-[1,2,3]triazolo[4,5-d]pyrimidine-5-amine], the melting point is reported as 174 to 174.2 °C.

For Nc1nc(-c2ccco2)c2nnn(CC(=O)Nc3ccccn3)c2n1 [Example 52, (5-amino-7-(2-furyl)-3H-[1,2,3]triazolo[4,5-d]pyrimidin-3-yl)-N-(2-pyridyl)acetamide], the melting point was 263.8 to 264 °C.

Work on Nc1nc(-c2ccco2)c2nnn(CC(=O)Nc3ccccc3)c2n1 [Example 54, (5-amino-7-(2-furyl)-3H-[1,2,3]triazolo[4,5-d]pyrimidin-3-yl)-N-phenylacetamide] yielded a melting point of 292.2 to 292.3 °C.

Molecule COCCc1cccc(Cn2nnc3c(-c4ccco4)nc(N)nc32)n1 [Example 264, 7-(2-furyl)-3-(6-(2-methoxyethyl)-2-pyridylmethyl)-3H-[1,2,3]triazolo[4,5-d]pyrimidine-5-amine] has a melting point of 162 to 162.6 °C.

For Cc1ccc(-c2nc(N)nc3[nH]nnc23)o1 [Example 19, 7-(5-Methyl-2-furyl)-1H-[1,2,3]triazolo[4,5-d]pyrimidine-5-amine], the melting point was 291.8 to 292 °C.

With C=CCOCc1cccc(Cn2nnc3c(-c4ccc(C)o4)nc(N)nc32)n1 [Example 186, 3-(6-allyloxymethyl-2-pyridylmethyl)-7-(5-methyl-2-furyl)-3H-[1,2,3]triazolo[4,5-d]pyrimidine-5-amine] the melting point was 149 to 149.3 °C.

CC(C)(C)OC(=O)n1ccc2c(Cn3nnc4c(-c5ccco5)nc(N)nc43)cccc21 [Example 138, tert-butyl 4-(5-amino-7-(2-furyl)-3H-[1,2,3]triazolo[4,5-d]pyrimidine-3-ylmethyl)indole-1-carboxylate] showed a melting point of 58.5 to 62.6 °C.

In the case of Cc1ccc(-c2nc(N)nc3c2nnn3Cc2ccc(N)c(C)c2)o1 [Example 124, 3-(4-amino-3-methylbenzyl)-7-(5-methyl-2-furyl)-3H-[1,2,3]triazolo[4,5-d]pyrimidine-5-amine], the melting point is reported as 215.7 to 216.7 °C.

Cc1ccc(-c2nc(N)nc3c2nnn3Cc2ccc([N+](=O)[O-])cc2)o1 [Example 268, 7-(5-methyl-2-furyl)-3-(4-nitrobenzyl)-3H-[1,2,3]triazolo[4,5-d]pyrimidine-5-amine] gave a melting point of 248.1 to 249 °C.

With Nc1nc(-c2ccco2)c2nnn(Cc3ccc(N)c(F)c3)c2n1 [Example 147, 3-(4-amino-3-fluorobenzyl)-7-(2-furyl)-3H-[1,2,3]triazolo[4,5-d]pyrimidine-5-amine] the melting point was > 200 °C (dec.).

Cc1ccc(-c2nc(N)nc3c2nnn3Cc2ccccc2N)o1 (as salt: hydrochloride) [Example 74, 3-(2-aminobenzyl)-7-(5-methyl-2-furyl)-3H-[1,2,3]triazolo[4,5-d]pyrimidine-5-amine hydrochloride] gave a melting point of 214.6 to 215.2 °C.

Work on COc1cc(Cn2nnc3c(-c4ccco4)nc(N)nc32)ccc1[N+](=O)[O-] [Example 133, 7-(2-furyl)-3-(3-methoxy-4-nitrobenzyl)-3H [1,2,3]triazolo[4,5-d]pyrimidine-5-amine] yielded a melting point of 209.7 to 209.9 °C.

Work on NCc1cccc(Cn2nnc3c(-c4ccn[nH]4)nc(N)nc32)c1 [Example 101, 3-(3-Aminomethylbenzyl)-7-(1H-pyrazol-3-yl)-3H-[1,2,3]triazolo[4,5-d]pyrimidine-5-amine] yielded a melting point of 279.9 to 280.3 °C.

Cc1c(Cn2nnc3c(-c4ccco4)nc(N)nc32)cccc1[N+](=O)[O-] [Example 88, 7-(2-furyl)-3-(2-methyl-3-nitrobenzyl)-3H-[1,2,3]triazolo[4,5-d]pyrimidine-5-amine] showed a melting point of 258.8 to 259 °C.

For CNCc1cccc(Cn2nnc3c(-c4ccco4)nc(N)nc32)n1 (as salt: hydrochloride) [Example 226, 7-(2-Furyl)-3-(6-(N-methylamino)methyl-2-pyridylmethyl)-3H-[1,2,3]triazolo[4,5-d]pyrimidine-5-amine], the melting point was 221.4 to 221.5 °C.

With Cc1ccc(-c2nc(N)nc3c2nnn3Cc2c(F)cccc2F)o1 [Example 60, 3-(2,6-difluorobenzyl)-7-(5-methyl-2-furyl)-3H-[1,2,3]triazolo[4,5-d]pyrimidine-5-amine] the melting point was 209.7 to 209.8 °C.

Work on CC(=O)Nc1ccc(Cn2nnc3c(-c4ccco4)nc(N)nc32)cc1 [Example 193, N-(4-(5-amino-7-(2-furyl)-3H-[1,2,3]triazolo[4,5-d]pyrimidin-3-ylmethyl)phenyl)acetamide] yielded a melting point of 253.6 to 254 °C.

With Nc1nc(-c2ccco2)c2nnn(CC(=O)c3ccccc3[N+](=O)[O-])c2n1 [Example 235, 2-(5-amino-7-(2-furyl)-3H-[1,2,3]triazolo[4,5-d]pyrimidin-3-yl)-1-(2-nitrophenyl)ethanone] the melting point was 231.6 to 231.7 °C.

For Nc1nc(-c2ccco2)c2nnn(Cc3ccsc3)c2n1 [Example 179, 7-(2-furyl)-3-(3-thienylmethyl)-3H-[1,2,3]triazolo[4,5-d]pyrimidine-5-amine], the melting point was 215.8 to 216.9 °C.

Cc1ccc(-c2nc(N)nc3c2nnn3Cc2cc(N)ccc2F)o1 (as salt: hydrochloride) [Example 84, 3-(5-amino-2-fluorobenzyl)-7-(5-methyl-2-furyl)-3H-[1,2,3]triazolo[4,5-d]pyrimidine-5-amine hydrochloride] gave a melting point of 235.8 to 236.5 °C.

With CC(C)(C)OC(=O)NCc1ccc(Cn2nnc3c(-c4ccco4)nc(N)nc32)cc1 [Example 140, tert-butyl N-(4-(5-amino-7-(2-furyl)-3H-[1,2,3]triazolo[4,5-d]pyrimidine-3-ylmethyl)benzyl)carbamate] the melting point was 184 to 185.2 °C.

Work on Nc1nc(-c2ccco2)c2nnn(Cc3csc(-c4ccccc4)n3)c2n1 [Example 108, 7-(2-furyl)-3-(2-phenylthiazol-4-ylmethyl)-3H-[1,2,3]triazolo[4,5-d]pyrimidine-5-amine] yielded a melting point of 215 to 215.3 °C.

Nc1nc(-c2ccco2)c2nnn(Cc3ccc4c(c3)CCO4)c2n1 [Example 166, 3-(2,3-dihydrobenzofuran-5-ylmethyl)-7-(2-furyl)-3H-[1,2,3]triazolo[4,5-d]pyrimidine-5-amine] showed a melting point of 210.3 to 211.2 °C.

Molecule Nc1nc(-c2ccco2)c2nnn(Cc3ccc4[nH]ccc4c3)c2n1 [Example 153, 7-(2-furyl)-3-(5-indolylmethyl)-3H-[1,2,3]triazolo[4,5-d]pyrimidine-5-amine] has a melting point of 226.8 to 227.4 °C.

In the case of CS(=O)(=O)N(Cc1cccc(Cn2nnc3c(-c4ccco4)nc(N)nc32)n1)Cc1cccc(Cn2nnc3c(-c4ccco4)nc(N)nc32)n1 [Example 237, N,N-bis(6-(5-amino-7-(2-furyl)-3H-[1,2,3]triazolo[4,5-d]pyrimidine-3-ylmethyl)-2-pyridylmethyl)methanesulphonamide], the melting point is reported as 259.3 to 259.4 °C.

COc1cc([N+](=O)[O-])ccc1Cn1nnc2c(-c3ccco3)nc(N)nc21 [Example 159, 7-(2-furyl)-3-(2-methoxy-4-nitrobenzyl)-3H-[1,2,3]triazolo[4,5-d]pyrimidine-5-amine] gave a melting point of 235.9 to 237.8 °C.

CC(C)(C)OC(=O)Oc1cc(F)c(Cn2nnc3c(-c4ccco4)nc(N)nc32)c(F)c1 [Example 148, tert-butyl (4-(5-amino-7-(2-furyl)-3H-[1,2,3]triazolo[4,5-d]pyrimidine-3-ylmethyl)-3,5-difluorophenyl)carbonate] gave a melting point of 259.8 to 259.9 °C.

In the case of C=CCOCc1cccc(Cn2nnc3c(-c4ccco4)nc(N(CC=C)CC=C)nc32)n1 [Example 182, 3-(6-Allyloxymethyl-2-pyridylmethyl)-N,N-diallyl-7-(2-furyl)-3H-[1,2,3]triazolo[4,5-d]pyrimidine-5-amine], the melting point is reported as 92.3 to 92.7 °C.

In the case of Cc1cc(Cn2nnc3c(-c4ccco4)nc(N)nc32)c2[nH]ccc2c1 [Example 243, 7-(2-furyl)-3-(5-methyl-7-indolylmethyl)-3H-[1,2,3]triazolo[4,5-d]pyrimidine-5-amine], the melting point is reported as > 300 °C (dec.).

COc1ccnc(Cn2nnc3c(-c4ccco4)nc(N)nc32)c1 [Example 63, 7-(2-furyl)-3-(4-methoxy-2-pyridylmethyl)-3H-[1,2,3]triazolo[4,5-d]pyrimidine-5-amine] gave a melting point of 201.1 to 201.2 °C.

From US7589097B2, “Triazol[4,5-d] pyramidine derivatives and their use as purinergic receptor antagonists” (Vernalis Research Limited, priority 2001, dated 2009)
